# From patent publication US20240408169A1 (priority 2023, published 2024)
# pIC50: −log10 of the molar value. Like-named read-outs stand apart in the source and are kept apart here. *1 amine or outer side, *2 acyl side, *3 side chain or, on linkers, in order; H or OH if unused. Where a SMILES comes first, the peptide text is derived from it. Bridges are numbered along the chain shown (N, C = ends). [ ]: non-standard residue; d: D form. The star is where a group is joined. X110 = CC(C)C(=O)N1[C@H]2CC[C@@H]1C=C(c1ccc(Cl)cc1C[C@@H](C(=O)[*:2])N(C)[*:1])C2; X38 = CN([C@@H](Cc1cc(Cl)ccc1-c1ccc(N2C[C@H]3COC[C@H]3C2)cc1)C(=O)[*:2])[*:1]; NMePhe(2-(4-MorPh),5-Cl) = CN[C@@H](Cc1cc(Cl)ccc1-c1ccc(N2CCOCC2)cc1)C(=O)O; X62 = CN1CCC[C@H](c2ccc(-c3ccc(Cl)cc3C[C@@H](C(=O)[*:2])N(C)[*:1])cc2)C1; X75 = CC(C)C(=O)N1C2C=C(c3ccc(Cl)cc3C[C@@H](C(=O)[*:2])N(C)[*:1])CC1COC2; X57 = CC(C)C(=O)N1C2C=C(c3ccc(Cl)cc3C[C@@H](C(=O)[*:2])N(C)[*:1])CC1CC2; X11 = CN1CCN(c2ccc(-c3ccc(Cl)cc3C[C@@H](C(=O)[*:2])N(C)[*:1])cc2)CC1; X115 = CN([C@@H](Cc1cc(Cl)ccc1-c1ccc(N2CCNCC2)cc1)C(=O)[*:2])[*:1]; X6 = CN([C@@H](Cc1cc(Cl)ccc1-c1ccc(-c2cccnc2)cc1)C(=O)[*:2])[*:1]; X18 = CC(=O)N1CCC(=Cc2ccc(Cl)cc2C[C@@H](C(=O)[*:2])N(C)[*:1])CC1; NMehhhLys(Me) = CN([C@@H](CCCCCCCN(C)[*:3])C(=O)[*:2])[*:1]; X67 = Cc1c(-c2ccc(Cl)cc2C[C@@H](C(=O)[*:2])N(C)[*:1])cnn1C; X112 = CN([C@@H](Cc1cc(F)ccc1-c1cnn(C)c1)C(=O)[*:2])[*:1]; X66 = CN([C@@H](Cc1cc(Cl)ccc1-c1cccnc1)C(=O)[*:2])[*:1]; NMe(hhhLys) = CN([C@@H](CCCCCCCN[*:3])C(=O)[*:2])[*:1]; X28 = CN([C@@H](Cc1cc(Cl)cnc1OC1CCC1)C(=O)[*:2])[*:1]; Cyclobutanecarbonyl(1-CF3) = O=C(C1(C(F)(F)F)CCC1)*; cBuCO(3,3-F2-1-CF3) = O=C(C1(C(F)(F)F)CC(F)(F)C1)*; Pro(trans-4-F) = O=C(O)[C@@H]1C[C@@H](F)CN1; Gly(cPr) = N[C@H](C(=O)O)C1CC1; X65 = CC1(C(=O)*)CC(F)(F)C1
# Legend:
# [1] = system: OVCAR3 cells; assay: MTT proliferation assay, OVCAR3; format: cell-based; settings: 5 days compound exposure, 1:3 serial dilution starting at 10 μM;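 note: compound given as an 8- or 10-point series, one day after plating, with exposure covering roughly 3-4 cell doublings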
# [2] = system: WI-38 cells; assay: MTT proliferation assay, WI-38; format: cell-based; settings: 3 days compound exposure, 1:3 serial dilution starting at 10 μM;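 note: Eight- or ten-point dilution series, with exposure length chosen to span about three to four cell doublings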
# [3] = biological target: T1, CyclinB1/CDK1 (Homo sapiens, UniProt P14635); assay: Fluorescence Polarization (FP) competitive binding assay, Cyclin B1/Cdk1;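 note: fluorescence polarization read after equilibration at room temperature, with IC50 taken from serially diluted dose-response curves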
# T1 construct: purchased Eurofins, discovery 14-450
# [4] = biological target: T2, CyclinE1/CDK2 (Homo sapiens, UniProt P24864); assay: Fluorescence Polarization (FP) competitive binding assay, Cyclin E1/Cdk2;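 note: readings taken after two-hour equilibration at room temperature in HEPES buffer with NaCl, DTT, NP-40 and BSA, IC50 fitted from eight-concentration serial dilution series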
# T2 construct: purchased Eurofins, discovery 14-475
# [5] = system: NCI-H1048 cells; assay: MTT proliferation assay, NCI-H1048; format: cell-based; settings: 5 days compound exposure, 1:3 serial dilution starting at 10 μM;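 note: Dose-response in 96-well plates over 8 or 10 concentration points, with exposure spanning 3-4 cell doublings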
# [6] = biological target: T3, CyclinA2/CDK2 (Homo sapiens, UniProt P20248); assay: Fluorescence Polarization (FP) competitive binding assay, Cyclin A2/Cdk2;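 note: plates equilibrated two hours at room temperature before polarization reading, IC50 fitted from eight-concentration compound titration curves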
# T3 construct: purchased CRELUX Protein Services
# [7] = 10 nM Cyclin B1/Cdk1, 2 nM FAM probe; average of 2-3 independent experiments; read-out: Cyclin B FP IC50
# [8] = 10 nM Cyclin E1/Cdk2, 2 nM FAM probe, average of 2-3 independent experiments, read-out: Cyclin E FP IC50
# [9] = 8 nM Cyclin A2/Cdk2, 2 nM FAM probe, average of 2-3 independent experiments, read-out: Cyclin A FP IC50
SMILES,GI50 [1] [nM],GI50 [2] [nM],"pIC50 [3, 7]","pIC50 [4, 8]",GI50 [5] [nM],"pIC50 [6, 9]","pIC50 ([3]; read-out: Cyclin B FP IC50; 10 nM Cyclin B1/Cdk1, 2 nM FAM probe; average of 2-3 independent experiments)",pIC50 [4],pIC50 [6]
"CC(C)C[C@@H]1NC(=O)[C@@H](N(C)C(=O)[C@@H](NC(=O)[C@@H]2C[C@@H](F)CN2C(=O)C2(C(F)(F)F)CC(F)(F)C2)C2CC2)CCCCCCCN(C)C(=O)[C@H](Cc2cc(Cl)ccc2-c2ccc(N3C[C@H]4COC[C@H]4C3)cc2)N(C)C1=O [Example 363] ({cBuCO(3,3-F2-1-CF3)}-[Pro(trans-4-F)][Gly(cPr)][NMehhhLys(Me)]L[X38]; lactam 3-C)",10,1430,7.70,6.33,10,7.70,,,
"CC(=O)N1CCC(=Cc2ccc(Cl)cc2C[C@H]2C(=O)N(C)CCCCCCC[C@H](N(C)C(=O)[C@@H](NC(=O)[C@@H]3C[C@@H](F)CN3C(=O)C3(C(F)(F)F)CC(F)(F)C3)C3CC3)C(=O)N[C@@H](CC(C)C)C(=O)N2C)CC1 [Example 289] ({cBuCO(3,3-F2-1-CF3)}-[Pro(trans-4-F)][Gly(cPr)][NMehhhLys(Me)]L[X18]; lactam 3-C)",10,3780,7.70,6.49,10,7.52,,,
CC(C)C[C@@H]1NC(=O)[C@@H](N(C)C(=O)[C@@H](NC(=O)[C@@H]2C[C@@H](F)CN2C(=O)C2(C(F)(F)F)CCC2)C2CC2)CCCCCCCN(C)C(=O)[C@H](Cc2cc(F)ccc2-c2cnn(C)c2)N(C)C1=O [Example 69] ({Cyclobutanecarbonyl(1-CF3)}-[Pro(trans-4-F)][Gly(cPr)][NMehhhLys(Me)]L[X112]; lactam 3-C),10,17600,7.70,6.96,10,7.70,,,
CC(C)C[C@@H]1NC(=O)[C@@H](N(C)C(=O)[C@@H](NC(=O)[C@@H]2C[C@@H](F)CN2C(=O)C2(C(F)(F)F)CCC2)C2CC2)CC=CCCCCNC(=O)[C@H](Cc2cc(Cl)ccc2-c2cnn(CCO)c2)N(C)C1=O [Example 33],170,15600,7.70,6.57,90,7.70,,,
"Cc1c(-c2ccc(Cl)cc2C[C@H]2C(=O)N(C)CCCCCCC[C@H](N(C)C(=O)[C@@H](NC(=O)[C@@H]3C[C@@H](F)CN3C(=O)C3(C(F)(F)F)CC(F)(F)C3)C3CC3)C(=O)N[C@@H](CC(C)C)C(=O)N2C)cnn1C [Example 234] ({cBuCO(3,3-F2-1-CF3)}-[Pro(trans-4-F)][Gly(cPr)][NMehhhLys(Me)]L[X67]; lactam 3-C)",10,10700,,,10,,7.70,6.08,7.52
"CC(C)C[C@@H]1NC(=O)[C@@H](N(C)C(=O)[C@@H](NC(=O)[C@@H]2C[C@@H](F)CN2C(=O)C2(C(F)(F)F)CC(F)(F)C2)C2CC2)CCCCCCCN(C)C(=O)[C@H](Cc2cc(Cl)ccc2-c2ccc(-c3cccnc3)cc2)N(C)C1=O [Example 375] ({cBuCO(3,3-F2-1-CF3)}-[Pro(trans-4-F)][Gly(cPr)][NMehhhLys(Me)]L[X6]; lactam 3-C)",20,16800,7.70,5.76,10,7.70,,,
COCCn1cc(-c2ccc(Cl)cc2C[C@H]2C(=O)N(C)CCCCC=CC[C@H](N(C)C(=O)[C@@H](NC(=O)[C@@H]3C[C@@H](F)CN3C(=O)C3(C(F)(F)F)CC(F)(F)C3)C3CC3)C(=O)N[C@@H](CC(C)C)C(=O)N2C)cn1 [Example 44],40,6600,7.70,6.57,20,7.52,,,
"CC(C)C[C@@H]1NC(=O)[C@@H](N(C)C(=O)[C@@H](NC(=O)[C@@H]2C[C@@H](F)CN2C(=O)C2(C)CC(F)(F)C2)C2CC2)CCCCCCCN(C)C(=O)[C@H](Cc2cc(Cl)ccc2-c2ccc(N3CCOCC3)cc2)N(C)C1=O [Example 365] (X65-[Pro(trans-4-F)][Gly(cPr)][NMehhhLys(Me)]L[NMePhe(2-(4-MorPh),5-Cl)]; lactam 3-C)",10,3180,7.70,5.93,10,7.70,,,
CC(C)C[C@@H]1NC(=O)[C@@H](N(C)C(=O)[C@@H](NC(=O)[C@@H]2C[C@@H](F)CN2C(=O)C2(C(F)(F)F)CC(F)(F)C2)C2CC2)CC=CCCCCNC(=O)[C@H](Cc2cc(Cl)ccc2C2=CCN(C(=O)C3CC3)CC2)N(C)C1=O [Example 89],380,4340,7.70,5.27,310,6.92,,,
"CC(C)C[C@@H]1NC(=O)[C@@H](N(C)C(=O)[C@@H](NC(=O)[C@@H]2C[C@@H](F)CN2C(=O)C2(C(F)(F)F)CC(F)(F)C2)C2CC2)CCCCCCCNC(=O)[C@H](Cc2cc(Cl)ccc2C2=CC3COCC(C2)N3C(=O)C(C)C)N(C)C1=O (stereo partly drawn) [Example 194] ({cBuCO(3,3-F2-1-CF3)}-[Pro(trans-4-F)][Gly(cPr)][NMe(hhhLys)]L[X75]; lactam 3-C)",10,5610,7.70,6.27,10,7.70,,,
"CC(C)C[C@@H]1NC(=O)[C@@H](N(C)C(=O)[C@@H](NC(=O)[C@@H]2C[C@@H](F)CN2C(=O)C2(C(F)(F)F)CC(F)(F)C2)C2CC2)CCCCCCCNC(=O)[C@H](Cc2cc(Cl)ccc2-c2cccnc2)N(C)C1=O [Example 276] ({cBuCO(3,3-F2-1-CF3)}-[Pro(trans-4-F)][Gly(cPr)][NMe(hhhLys)]L[X66]; lactam 3-C)",20,23400,7.70,6.15,20,7.52,,,
"CC(C)C[C@@H]1NC(=O)[C@@H](N(C)C(=O)[C@@H](NC(=O)[C@@H]2C[C@@H](F)CN2C(=O)C2(C(F)(F)F)CC(F)(F)C2)C2CC2)CCCCCCCNC(=O)[C@H](Cc2cc(Cl)ccc2C2=C[C@H]3CC[C@@H](C2)N3C(=O)C(C)C)N(C)C1=O [Example 313] ({cBuCO(3,3-F2-1-CF3)}-[Pro(trans-4-F)][Gly(cPr)][NMe(hhhLys)]L[X110]; lactam 3-C)",10,36600,7.70,6.19,10,7.70,,,
"CC(C)C[C@@H]1NC(=O)[C@@H](N(C)C(=O)[C@@H](NC(=O)[C@@H]2C[C@@H](F)CN2C(=O)C2(C(F)(F)F)CC(F)(F)C2)C2CC2)CCCCCCCN(C)C(=O)[C@H](Cc2cc(Cl)ccc2-c2ccc(N3CCN(C)CC3)cc2)N(C)C1=O [Example 336] ({cBuCO(3,3-F2-1-CF3)}-[Pro(trans-4-F)][Gly(cPr)][NMehhhLys(Me)]L[X11]; lactam 3-C)",10,2480,7.70,6.38,10,7.70,,,
CC(C)C[C@@H]1NC(=O)[C@@H](N(C)C(=O)[C@@H](NC(=O)[C@@H]2C[C@@H](F)CN2C(=O)C2(C(F)(F)F)CCC2)C2CC2)CCCCCCCN(C)C(=O)[C@H](Cc2cc(Cl)cnc2OC2CCC2)N(C)C1=O [Example 139] ({Cyclobutanecarbonyl(1-CF3)}-[Pro(trans-4-F)][Gly(cPr)][NMehhhLys(Me)]L[X28]; lactam 3-C),150,6420,7.70,7.00,70,7.70,,,
"CC(C)C[C@@H]1NC(=O)[C@@H](N(C)C(=O)[C@@H](NC(=O)[C@@H]2C[C@@H](F)CN2C(=O)C2(C(F)(F)F)CC(F)(F)C2)C2CC2)CCCCCCCN(C)C(=O)[C@H](Cc2cc(Cl)ccc2-c2ccc([C@H]3CCCN(C)C3)cc2)N(C)C1=O [Example 412] ({cBuCO(3,3-F2-1-CF3)}-[Pro(trans-4-F)][Gly(cPr)][NMehhhLys(Me)]L[X62]; lactam 3-C)",10,1060,7.70,5.86,10,7.70,,,
"CC(C)C[C@@H]1NC(=O)[C@@H](N(C)C(=O)[C@@H](NC(=O)[C@@H]2C[C@@H](F)CN2C(=O)C2(C(F)(F)F)CC(F)(F)C2)C2CC2)CCCCCCCN(C)C(=O)[C@H](Cc2cc(Cl)ccc2-c2ccc(N3CCNCC3)cc2)N(C)C1=O [Example 341] ({cBuCO(3,3-F2-1-CF3)}-[Pro(trans-4-F)][Gly(cPr)][NMehhhLys(Me)]L[X115]; lactam 3-C)",10,2440,7.70,6.29,10,7.70,,,
COCn1cc(-c2ccc(Cl)cc2C[C@H]2C(=O)N(C)CCCCC=CC[C@H](N(C)C(=O)[C@@H](NC(=O)[C@@H]3C[C@@H](F)CN3C(=O)C3(C(F)(F)F)CCC3)C3CC3)C(=O)N[C@@H](CC(C)C)C(=O)N2C)cn1 [Example 80],30,11600,7.70,6.52,30,7.40,,,
"CC(C)C[C@@H]1NC(=O)[C@@H](N(C)C(=O)[C@@H](NC(=O)[C@@H]2C[C@@H](F)CN2C(=O)C2(C(F)(F)F)CC(F)(F)C2)C2CC2)CCCCCCCNC(=O)[C@H](Cc2cc(Cl)ccc2C2=CC3CCC(C2)N3C(=O)C(C)C)N(C)C1=O (stereo partly drawn) [Example 193] ({cBuCO(3,3-F2-1-CF3)}-[Pro(trans-4-F)][Gly(cPr)][NMe(hhhLys)]L[X57]; lactam 3-C)",20,7580,7.70,6.15,10,7.70,,,
